Experimental data: patent publication US20230144211A1, “ANTIFOLATE LINKER-DRUGS AND ANTIBODY-DRUG CONJUGATES” (Byondis B.V., priority 2020, published 2023)

Experiments:
SK-BR-3 cells = experiment: In vitro cell viability assay (CellTiter-Glo, 6 days); type: cell-based, human; conditions: Homo sapiens, SK-BR-3, free antifolate drugs
Procedure: (§1) FaDu, BxPC-3, HeLa, MV4-11, and RAJI cell lines were obtained from Deutsche Sammlung von Mikroorganismen und Zellkulturen (Leipzig, Germany). Jurkat NucLight Red cells were obtained from Essen BioScience Inc. (Ann Arbor, Mich., USA). SK-BR-3 and SK-OV-3 cells were cultured in McCoys 5A medium (Lonza; Walkersville, Md., USA) supplemented with 10% v/w Fetal Bovine Serum (FBS), Heat-inactivated (HI) (Gibco-Life Technologies; Carlsbad, Calif.) and 80 U/mL Pen/Strep (Gibco-Life Technologies), at 37° C. in a humidified incubator under 5% CO2 atmosphere. SW-620 cells were similarly maintained in RPMI 1640 medium (Lonza), containing 10% v/w FBS HI and 80 U/mL Pen/Strep. A-549 cells were similarly maintained in F-12K Nutrient Mixture (1×) (Gibco-Life Technologies) media supplemented with 80 U/mL Pen/Strep and 5% v/w FBS, which was Qualified (Q) (Gibco-Life Technologies). BT-474 and AU-565 cells were similarly maintained in RPMI 1640 medium (Lonza), containing 10% v/w FBS, which was Qualified (Q) (Gibco-Life Technologies), and 80 U/mL Pen/Strep. […] Jurkat NucLight Red cells were similarly maintained in RPMI 1640 medium (Lonza), containing 10% v/w FBS HI, 80 U/mL Pen/Strep and 0.5 μg/mL Puromycin (Gibco-Life Technologies). FaDu cells were cultured in EMEM medium (Lonza) supplemented with 10% v/w FBS HI (Gibco-Life Technologies), 1× GlutaMAX (Gibco-Life Technologies), and 80 U/mL Pen/Strep (Gibco-Life Technologies), at 37° C. in a humidified incubator under 5% CO2 atmosphere.
(§2) After an overnight incubation, 10 serial log 10 dilutions of the free drugs were made in DMSO (Sigma-Aldrich). These free drug dose-response curves were 10-times further diluted in complete growth medium. For the ADCs according to the invention 10 serial log 10 dilutions were made in complete growth medium. 10 μL of a composition comprising a free drug or an ADC according to the invention was added to the assay plate (final DMSO content for free drugs was 1%). […] […] Percentage cell survival was calculated by dividing the measured luminescence for each free drug or ADC according to the concentration with the average mean of untreated cells (1% or 0.1% DMSO control (for free drugs) or 100% complete growth medium (for ADCs)) multiplied by 100.
(§3) Curves were fitted by non-linear regression using the sigmoidal dose-response equation with variable slope (four parameters) using curve-fitting software (GraphPad Prism, version 9.4.0 for Windows, GraphPad, San Diego, Calif. or Electronic Laboratory Notebook (ELN) add-in BioAssay, version 19.1.0.0218, Perkin Elmer, Waltham, Mass.). Relative IC50 values were calculated as the concentration that gives a response halfway between bottom and top of the curve, when using a 4-parameter logistic fit. Data were reported as mean IC50 value of at least one experiment performed in duplicate.

SW-620 cells = experiment: as above; type: cell-based; conditions: Homo sapiens, free antifolate drugs, Table 1a
Procedure: as §1
(§4) After an overnight incubation, 10 serial log 10 dilutions of the free drugs were made in DMSO (Sigma-Aldrich). These free drug dose-response curves were 10-times further diluted in complete growth medium. For the ADCs according to the invention 10 serial log 10 dilutions were made in complete growth medium. 10 μL of a composition comprising a free drug or an ADC according to the invention was added to the assay plate (final DMSO content for free drugs was 1%). […] Cell viability was assessed after 6 days using a luminescent assay kit (CellTiter-Glo™ (CTG), Promega Corporation) according to the manufacturer's instructions. Percentage cell survival was calculated by dividing the measured luminescence for each free drug or ADC according to the concentration with the average mean of untreated cells (1% or 0.1% DMSO control (for free drugs) or 100% complete growth medium (for ADCs)) multiplied by 100.
as §3

A-549 cells = experiment: as above; type: cell-based; conditions: Homo sapiens, A549; free antifolate drugs, Table 1a; $ steep hillslope
Procedure: (§5) Human tumor cell lines SK-BR-3, SW-620, A-549, BT-474, Jurkat Clone E6-1, AU-565, and SK-OV-3 were obtained from American Type Culture Collection (Rockville, Md., USA). FaDu, BxPC-3, HeLa, MV4-11, and RAJI cell lines were obtained from Deutsche Sammlung von Mikroorganismen und Zellkulturen (Leipzig, Germany). Jurkat NucLight Red cells were obtained from Essen BioScience Inc. (Ann Arbor, Mich., USA). SK-BR-3 and SK-OV-3 cells were cultured in McCoys 5A medium (Lonza; Walkersville, Md., USA) supplemented with 10% v/w Fetal Bovine Serum (FBS), Heat-inactivated (HI) (Gibco-Life Technologies; Carlsbad, Calif.) and 80 U/mL Pen/Strep (Gibco-Life Technologies), at 37° C. in a humidified incubator under 5% CO2 atmosphere. SW-620 cells were similarly maintained in RPMI 1640 medium (Lonza), containing 10% v/w FBS HI and 80 U/mL Pen/Strep. A-549 cells were similarly maintained in F-12K Nutrient Mixture (1×) (Gibco-Life Technologies) media supplemented with 80 U/mL Pen/Strep and 5% v/w FBS, which was Qualified (Q) (Gibco-Life Technologies). BT-474 and AU-565 cells were similarly maintained in RPMI 1640 medium (Lonza), containing 10% v/w FBS, which was Qualified (Q) (Gibco-Life Technologies), and 80 U/mL Pen/Strep. Jurkat Clone E6-1, BxPC-3, HeLa, MV4-11, and RAJI cells were similarly maintained in RPMI 1640 medium (Lonza), containing 10% v/w FBS HI and 80 U/mL Pen/Strep. Jurkat NucLight Red cells were similarly maintained in RPMI 1640 medium (Lonza), containing 10% v/w FBS HI, 80 U/mL Pen/Strep and 0.5 μg/mL Puromycin (Gibco-Life Technologies). FaDu cells were cultured in EMEM medium (Lonza) supplemented with 10% v/w FBS HI (Gibco-Life Technologies), 1× GlutaMAX (Gibco-Life Technologies), and 80 U/mL Pen/Strep (Gibco-Life Technologies), at 37° C. in a humidified incubator under 5% CO2 atmosphere.
as §4, with “Cells in complete growth medium were plated in 96-well plates (90 μL/well) and incubated at 37° C., 5% CO2 at the following cell densities: 6500 SK-BR-3, 4000 SW-620, 2500 A-549, 10000 BT-474, 3000 Jurkat Clone E6-1, 5000 AU-565, 1250 FaDu, 1250 BxPC-3, 1000 HeLa, 7500 MV4-11, 1000 RAJI, 3000 Jurkat NucLight Red, and 4000 SK-OV-3 cells per well. After” for “After”
as §3

AU-565 cells = experiment: as above; type: cell-based, human; conditions: Homo sapiens, AU565, free antifolate drugs
Procedure: as §1, §2, §3

Human tumor cell lines = experiment: In vitro cell viability assays, free antifolate drugs, overall comparison; type: cell-based; conditions: compared with talotrexin or parent compound
Procedure: as §5
as §4, with “Cells in complete growth medium were plated in 96-well plates (90 μL/well) and incubated at 37° C., 5% CO2 at the following cell densities: 6500 SK-BR-3, 4000 SW-620, 2500 A-549, 10000 BT-474, 3000 Jurkat Clone E6-1, 5000 AU-565, 1250 FaDu, 1250 BxPC-3, 1000 HeLa, 7500 MV4-11, 1000 RAJI, 3000 Jurkat NucLight Red, and 4000 SK-OV-3 cells per well. After” for “After”
as §3

[1] = test system: Jurkat NucLight Red cells; experiment: In vitro cell viability assay (CellTiter-Glo, 6 days); type: cell-based, human; conditions: Homo sapiens, Jurkat, free antifolate drugs
Procedure: as §1, §4, §3

Structure (SMILES)	IC50 (SK-BR-3 cells; Table 1a) [nM]	IC50 (SW-620 cells) [nM]	IC50 (A-549 cells) [nM]	also measured
Cc1c(CNc2ccc(C(=O)N[C@@H](CCCNC(=O)c3ccccc3C(=O)O)C(=O)O)cc2)ccc2nc(N)nc(N)c12 [Comparative compound 1, reference compound]	0.92	1.41	1.97	
Nc1nc(N)c2nc(CNc3ccc(C(=O)N[C@@H](CCCNC(=O)c4ccccc4C(=O)O)C(=O)O)cc3)cnc2n1 [Talotrexin, reference compound]	1.83	1.74	1.7	
Nc1nc(N)c2nc(CNc3ccc(C(=O)N[C@@H](CCCNC(=O)c4ccc(O)cc4)C(=O)O)cc3)cnc2n1 [XS14, (S)-2-(4-(((2,4-diaminopteridin-6-yl)methyl)amino)benzamido)-5-(4-hydroxybenzamido)pentanoic acid]	1.6		~8.7	IC50 (AU-565 cells; Table 1a): 1.9 nM
Nc1ccc(C(=O)O)c(C(=O)NCCC[C@H](NC(=O)c2ccc(NCc3cnc4nc(N)nc(N)c4n3)cc2)C(=O)O)c1 [XT9, (S)-4-Amino-2-((4-carboxy-4-(4-(((2,4-diaminopteridin-6-yl)methyl)amino)benzamido)butyl)carbamoyl)-benzoic acid]	17	10	20	
Nc1ccc(C(=O)NCCC[C@H](NC(=O)c2ccc(NCc3cnc4nc(N)nc(N)c4n3)cc2)C(=O)O)c(C(=O)O)c1 [XT10, (S)-5-amino-2-((4-carboxy-4-(4-(((2,4-diaminopteridin-6-yl)methyl)-amino)benzamido)butyl)carbamoyl)benzoic acid]	1.9	2.1	2	
CN(Cc1cnc2nc(N)nc(N)c2n1)c1ccc(C(=O)N[C@@H](CCCNC(=O)c2cc(N)ccc2C(=O)O)C(=O)O)cc1 [XT20, (S)-4-Amino-2-((4-carboxy-4-(4-(((2,4-diaminopteridin-6-yl)methyl)(methyl)amino)benzamido)butyl)-carbamoyl)benzoic acid]	25	12	19	
Nc1ccc(C(=O)NCCC[C@H](NC(=O)c2ccc(NCc3ccc4nc(N)nc(N)c4c3Cl)cc2)C(=O)O)c(-c2nnn[nH]2)c1 [XT110, (S)-5-(4-Amino-2-(1H-tetrazol-5-yl)benzamido)-2-(4-(((2,4-diamino-5-chloroquinazolin-6-yl)methyl)amino)benzamido)pentanoic acid]				IC50 (AU-565 cells; Table 1b): 0.36 nM; IC50 (AU-565 cells; Table 1c): 0.44 nM; IC50 (SK-BR-3 cells; Table 1b, # no full dose-response curve): 0.41 nM; IC50 (SK-BR-3 cells; Table 1c): 0.54 nM; IC50 ([1]; Table 1b): 0.75 nM; IC50 ([1]; Table 1c): 0.92 nM; antifolate activity, comparison in words (Human tumor cell lines): strongly increased the antifolate activity

Second part, led by results:

IC50 (SK-BR-3 cells; Table 1a) [nM]	IC50 (SW-620 cells) [nM]	IC50 (A-549 cells) [nM]	Structure (SMILES)	also measured
2.1	2.9	2.3	CN(Cc1cnc2nc(N)nc(N)c2n1)c1ccc(C(=O)N[C@@H](CCCNC(=O)c2ccc(N)cc2C(=O)O)C(=O)O)cc1 [XT21, (S)-5-amino-2-((4-carboxy-4-(4-(((2,4-diaminopteridin-6-yl)methyl)(methyl)amino)benzamido)butyl)carbamoyl)benzoic acid]	
18	7.5	27	Nc1ccc(C(=O)O)c(C(=O)NCCC[C@H](NC(=O)c2ccc(CCc3cnc4nc(N)nc(N)c4n3)cc2)C(=O)O)c1 [XT24, (S)-4-Amino-2-((4-carboxy-4-(4-(2-(2,4-diaminopteridin-6-yl)ethyl)benzamido)butyl)carbamoyl) benzoic acid]	
1	1.1	2.3	Nc1ccc(C(=O)NCCC[C@H](NC(=O)c2ccc(CCc3cnc4nc(N)nc(N)c4n3)cc2)C(=O)O)c(C(=O)O)c1 [XT25, (S)-5-amino-2-((4-carboxy-4-(4-(2-(2,4-diaminopteridin-6-yl)ethyl)benzamido)butyl)-carbamoyl)benzoic acid]	
3.1	2.5	16	Nc1ccc(C(=O)NCCC[C@H](NC(=O)c2ccc(NCc3cnc4nc(N)nc(N)c4n3)cc2)C(=O)O)cc1 [XT35, (S)-5-(4-Aminobenzamido)-2-(4-(((2,4-diaminopteridin-6-yl)methyl)amino)benzamido) pentanoic acid]	antifolate activity, comparison in words (Human tumor cell lines): less active than talotrexin
16	7.2	76	[N-]=[N+]=Nc1ccc(C(=O)NCCC[C@H](NC(=O)c2ccc(CCc3cnc4nc(N)nc(N)c4n3)cc2)C(=O)O)cc1 [XX5, (S)-5-(4-Azidobenzamido)-2-(4-(2-(2,4-diaminopteridin-6-yl)ethyl)benzamido) pentanoic acid]	antifolate activity, comparison in words (Human tumor cell lines): less active than talotrexin
